Columns and labels:
[1] = system: striatal dopamine; experiment: MPTP dopamine depletion model (mice, sacrificed 72 h after MPTP); assay type: in vivo, C57BL/6J mice; settings: for % non-MPTP control (striatal dopamine) / Dopamine/mg protein ± S.E.M.: 30 mg/kg p.o.; for % non-MPTP control (striatal dopamine) / Dopamine, nM/mg ± S.E.M., test compound / Protection, %: 15 mg/kg MPTP model; for Dopamine/mg protein ± S.E.M.: 30 min before 15 mg/kg MPTP s.c.; for protection from MPTP neurotoxicity, % of control / protection from the neurotoxic action of MPTP (in words): 50 mg/kg; for Dopamine, nM/mg ± S.E.M., test compound / Protection, %: 50 mg/kg p.o.; for Protection, %: versus methyl cellulose control (Standard); for prevention of dopamine depletion following MPTP challenge (in words): Table 1 results, 30 mg/kg; for Degree of protection, % (MPTP dopamine depletion test): Table 3, dose not given
Experimental: These findings have led to the development of an assay for agents effective in treating dopamine-associated neurodegenerative disorders, such as Parkinson's disease. In this assay, test animals are given an amount of MPTP adequate to severely depress their dopamine levels. Test compounds are administered to determine if they are capable of preventing the loss of dopamine in the test animals. To the extent that dopamine levels are retained, a compound can be considered to be an effective agent for slowing or delaying the course of neurodegenerative disease, e.g., Parkinson's disease. Dopamine Depletion Studies (MPTP Model) C57BL/6J mice were pretreated with either vehicle (1% methyl cellulose) or a drug (p.o.) 30 min before MPTP. MPTP was dissolved in isotonic saline (0.9%) and given subcutaneously as a single dose of 15 mg free base/kg body weight to produce a reduction in striatal dopamine to about 0.5 nanomoles/mg protein. Groups of mice (n=8-10 per group) received either vehicle plus saline, vehicle plus MPTP, or drug plus MPTP. Seventy two hours after receiving MPTP, mice were sacrificed using cervical dislocation and the striata were excised. The tissue was homogenized in 0.4 N perchloric acid, centrifuged, and the supernatant analyzed by high performance liquid chromatography/electro-chemical detection (HPLC/ED) for dopamine levels. Supernatants were stored in a -90° C. freezer between the time of collection and analysis. The drugs were combined with methyl cellulose and were homogenized in water for dosing. The dosage amount ranged from 10 to 50 mg/kg for CPI1160, CPI1189 and CPI1234, and from 50 to 100 mg/kg for CPI1020.

[2] = system: striatal dopamine; experiment: Long term protective effect test in the MPTP model (sacrifice 3 or 14 days after dosing); assay type: in vivo, C57BL/6J mice
Experimental: C57BL/6J mice were pretreated with either vehicle (1% methyl cellulose) or a drug (p.o.) 30 min before MPTP. MPTP was dissolved in isotonic saline (0.9%) and given subcutaneously as a single dose of 15 mg free base/kg body weight to produce a reduction in striatal dopamine to about 0.5 nanomoles/mg protein. Groups of mice (n=8-10 per group) received either vehicle plus saline, vehicle plus MPTP, or drug plus MPTP. Seventy two hours after receiving MPTP, mice were sacrificed using cervical dislocation and the striata were excised. The tissue was homogenized in 0.4 N perchloric acid, centrifuged, and the supernatant analyzed by high performance liquid chromatography/electro-chemical detection (HPLC/ED) for dopamine levels. Supernatants were stored in a -90° C. freezer between the time of collection and analysis.
Additional studies were carried out to determine the long-term effect on dopamine depletion of the compounds of the invention. Using the general test method described above, C57BL/6J mice were pretreated with either vehicle or test compound and MPTP and then sacrificed either 3 or 14 days after dosing.

[3] = system: striatal dopamine; experiment: 6-Hydroxydopamine dopamine depletion model; assay type: in vivo, male Sprague Dawley rats; settings: for Test side as percent of control side: right striatum injected with 6-hydroxydopamine
Experimental: Another assay for agents effective in treating dopamine-associated neurodegenerative disorders has been developed. In this assay, the striatum of test animals is injected with the neurotoxicant, 6-hydroxydopamine. 6-Hydroxydopamine has a dopamine-depleting action and is widely accepted as a model for these conditions. Test compounds are administered to determine if they are capable of preventing or reducing the loss of dopamine in the test animals. Again, to the extent that dopamine levels are retained, a compound can be considered an effective agent.
Tests were conducted to assess the ability of CPI-1189 to protect against 6-hydroxydopamine-induced damage. This is a widely accepted model for Parkinson's disease in which 6-hydroxydopamine is believed to produce its toxic effects by inducing oxidative stress. 6-hydroxydopamine has been used extensively since the 1960's as a neurotoxicant. Because 6-hydroxydopamine primarily affects catecholaminergic neurons, it has been mainly used for the experimental study of Parkinson's disease. The compound has had widespread use as a means of administering unilateral lesions in the nigrastriatal system. Animals treated with this toxin show biochemical and behavioral alterations that can be measured and probed pharmacologically to assess both the severity of the lesion and to determine the effect of potential therapeutic interventions.
The protective dose response of CPI-1189 to 6-hydroxydopamine-induced damage to the nigrastriatal system was determined. Damage to the nigrastriatal system was measured in terms of striatal dopamine levels.
Acclimated male Sprague Dawley rats, 55 to 120 days of age were used.
6-hydroxy-dopamine (Research Biochemicals Incorporated) was prepared in a 0.9% NaCl solution containing 0.1 mg/ml ascorbic acid on the morning of the experiment. […]
Immediately following sacrifice, dissected striatal tissue was collected and analyzed by HPLC/EC […] with the results shown in Table 5.

[4] = biological target: T1, Aβ(1-40) (Homo sapiens, UniProt P05067); experiment: Aβ(1-40) β-pleated sheet formation, Thioflavin T fluorescence; assay type: biochemical; settings: Aβ(1-40) 3 μg, PBS pH 6.0, 4 hours, read-out: % Protection (β-pleated sheet formation)
T1 construct: aggregated fibrils of synthetic Aβ(1-40)
T1 sequence (P05067 672-711 limits assumed): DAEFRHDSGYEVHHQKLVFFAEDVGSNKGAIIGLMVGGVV
Source text: Effect of Benzamides on Aβ(1-40) β-Pleated Sheets Formation: Detection of Amyloid Aggregation in Solution by Thioflavin T Fluorescence Spectra
Several assays have been developed to assess the activity of compounds as agents for the treatment of Alzheimer's disease.
Thioflavin T (ThT) rapidly associates with β pleated sheets particularly the aggregated fibrils of synthetic Aβ(1-40), giving rise to a new excitation maximum at 440 nm and enhanced emission at 490 nm. According to this principle, agents which could delay or reverse the formation of such association might be of therapeutic benefit.
Experiments were performed in 96 well plates and the fluorescence changes were evaluated using Fluorescence plate reader-CytoFluor II. Briefly, into each well was aliquoted 95 μl of ThT (3 μM) prepared in PBS (pH 6.0), 2 μl of NRT (10 μM) prepared in 0.05% of methylcellulose in PBS (pH 6.0), and 3 μl of Aβ(1-40)(3 μg) prepared with dH2 O. The fluorescence measurement began when Aβ(1-40) was added and continued for 4 hours at which the aggregation reached a plateau. The % protection of β-pleated sheet formation was calculated from the relative fluorescence unit difference between aggregation in the presence and in the absence of test compounds.

[5] = In vivo biotransformation of CPI1020 (metabolite in blood after oral administration); settings: rats and mice, CPI1020 administered orally
Source text: Commonly owned U.S. Pat. No. 5,472,983, referred to above, discloses several benzamides useful in treating neurodegenerative diseases based on their protective action in the MPTP mouse model of Parkinson's disease. […] This compound is likely formed in the body by reduction of the ring nitro of CPI1020 to an amino moiety (CPI1160) followed by acetylation of the amino function.

| inhibition at 10 µM [4] [%] | Compound | % non-MPTP control (striatal dopamine) [1] [%] | Dopamine/mg protein ± S.E.M. [1] | prevention of dopamine depletion following MPTP challenge (in words) [1] | Degree of protection, % (MPTP dopamine depletion test) [1] [%] | also measured |
| --- | --- | --- | --- | --- | --- | --- |
|  | CC(=O)Nc1ccc(C(=O)NC(C)C)cc1 [CPI1232, N-iso-propyl-4-acetamidobenzamide] |  |  |  | 70 |  |
|  | CC(=O)Nc1cccc(C(=O)NC(C)(C)C)c1 [CPI1234, N-tert-butyl-3-acetamidobenzamide] | 76.7 | 1.02 ± .05 /MG PROTEIN | effective in preventing dopamine depletion | 77 |  |
|  | CCC(C)(C)NC(=O)c1ccc(NC(C)=O)cc1 [CPI1233, N-tert-amyl-4-acetamidobenzamide] |  |  |  | 40 |  |
|  | CC(C)(C)NC(=O)c1ccc([N+](=O)[O-])cc1 [CPI1020, N-tert-butyl-4-nitrobenzamide, reference compound] |  |  |  |  | protection from MPTP neurotoxicity, % of control [1]: 56 % of control; protection from the neurotoxic action of MPTP (in words) [1]: not as effective; Dopamine, nM/mg ± S.E.M., test compound [1]: 0.58 ± .14 nM/mg; Protection, % [1]: 56% |
|  | N-methylcyclopropyl-4-acetamidobenzamide [CPI1241] |  |  |  | 40 |  |
| 31.7 ± 3.5 | CCC(C)(C)NC(=O)c1ccc([N+](=O)[O-])cc1 [CPI1033, N-tert-amyl-4-nitrobenzamide] |  |  |  |  |  |
| 14.4 ± 14.4 | CC(C)NC(=O)c1ccc([N+](=O)[O-])cc1 [CPI1026, N-iso-propyl-4-nitrobenzamide] |  |  |  |  |  |
|  | CC(C)(C)NC(=O)c1ccc(N)cc1 [CPI1160, N-tert-butyl4-aminobenzamide] | 93.9 | 1.25 ± .05 /MG PROTEIN | effective in preventing dopamine depletion | 94 |  |

| Compound | inhibition at 10 µM [4] [%] | % non-MPTP control (striatal dopamine) [1] [%] | Dopamine/mg protein ± S.E.M. [1] | prevention of dopamine depletion following MPTP challenge (in words) [1] | Degree of protection, % (MPTP dopamine depletion test) [1] [%] | also measured |
| --- | --- | --- | --- | --- | --- | --- |
| CC(=O)Nc1ccc(C(=O)NC(C)(C)C)cc1 [CPI1189, N-tert-butyl-4-acetamidobenzamide] | 48.3 ± 10.1 | 89.7 | 1.37 ± .14 /MG PROTEIN | effective in preventing dopamine depletion |  | protection from MPTP neurotoxicity, % of control [1]: 105 % of control; protection from the neurotoxic action of MPTP (in words) [1]: complete protection; Dopamine, nM/mg ± S.E.M., test compound [1]: 1.57 ± .11 nM/mg; Protection, % [1]: 105%; potency relative to CPI1020 in protecting mice from dopamine reduction in the striatum ([1]; s.c. MPTP): approximately 10 times; Striatal dopamine, percent of methyl cellulose/saline control ([2]; 3 Day Sac): 100%; Striatal dopamine, percent of methyl cellulose/saline control ([2]; 14 Day Sac): 96.7%; protection against MPTP induced dopamine depletion (in words) ([2]; sacrificed three days and fourteen days post MPTP): able to protect against MPTP induced dopamine depletion; Test side as percent of control side ([3]; 50 mg/kg oral): 72.82 ± 8.32%; Test side as percent of control side ([3]; 100 mg/kg oral): 77.61 ± 13.5%; protection against 6-hydroxydopamine induced dopamine depletion (in words) ([3]; rat, in vivo): able to protect against 6-hydroxydopamine induced dopamine depletion; in vivo biotransformation product of CPI1020 found in blood (in words) [5]: found in the blood of rats and mice |
